Assay results from patent US20110236359A1 (priority 2007, published 2011).
Converted amounts (≈) assume the structure as drawn. Read-outs that look alike come from different tables or passages of the source. Positions of bridges follow the written chain, without caps; N, C: chain ends. Non-standard residues stand in square brackets, D forms with d. Residues, ends and D or L forms follow the SMILES beside them. *: point of attachment. Ileψ(thiazoline)Cys = CC[C@H](C)[C@H](N)C1=N[C@H](C(=O)*)CS1; dOrn = NCCC[C@@H](N)C(=O)O

Tests used:
[1] = tested on: Pediococcus acidilactici MM33; assay: Antibiotic MIC plates (resistance profile); format: cell-based; conditions: median of two repetitions
Description: (§1) The protocol was adapted from Delgado et al. (2005). Minimum Inhibitory Concentration (MIC) Plate (# GPN3F) and Anaerobe MIC Plate (# AN02B) were used to determine the antibiotic sensitivity and resistance profile of MM19 and MM33 according to the instructions of the manufacturer (Trek Diagnostic Systems; Nova Century, Burlington, ON, Canada).
(§2) Lactococcus lactis subsp. lactis MM19, Pediococcus acidilactici MM33 and Lactobacillus rhamnosus GG (ATCC 53103) from frozen glycerol stock were first inoculated in Lactobacilli MRS and incubated at 37° C. for 18 h. 100 μl of this culture were further incubated under the same conditions. This second culture was then inoculated on a MRS agar plate and incubated at 37° C. for 48 h under anaerobic conditions using GasPak Plus system (BD BBL, Sparks, Md., USA).

[2] = tested on: Lactococcus lactis subsp. lactis MM19; assay: Antibiotic MIC plates (resistance profile); format: cell-based; conditions: MM19, median of two repetitions
Description: as §1, §2

[3] = tested on: Lactobacillus rhamnosus GG (ATCC 53103); assay: Antibiotic MIC plates (resistance profile); format: cell-based; conditions: median of two repetitions
Description: as §1, §2

[4] = tested on: vancomycin-resistant Enterococcus (VRE); assay: VRE intestinal colonization (infection) model; format: in vivo, CF-1 mice
Experimental: The tubes containing fresh stool samples, collected from individual mice, were weighted, so that the weight of the feces could be deduced. Then, all the feces were diluted in […] of sterile saline, homogenized with a pestle, and serially diluted 10-fold in 0.1% peptone water. Finally, […] of each dilution were inoculated on the following media: MRS agar for detection of total lactic acid bacteria (LAB), Rogosa SL agar for selective detection of Lactobacillus spp., Reinforced Clostridium Medium (RCM) for quantification of total anaerobic and mesophilic bacteria, Baird-Parker agar (BPA) for selective detection of Staphylococcus spp., MacConkey agar for selective enumeration of Enterobacteriaceae, Enterococcosel agar for selective quantification of total Enterococcus spp. and finally Enterococcosel agar+20 μg/ml of vancomycin (Sigma) for detection and enumeration of VRE. A volume of 100 μl of the undiluted sample was also plated. MRS, Rogosa and RCM plates were incubated in anaerobic jars at 37° C. for 72 h while BPA, MacConkey and both Enterococcosel agar plates were incubated under aerobic conditions at 37° C. for 48 h. When negative results were obtained for Enterococcosel agar+20 μg/ml of vancomycin after 48 h of incubation, the plates were allowed to incubate for another 24 h. For statistical purposes, a value in CFU per gram that was based upon the weight of individual specimens was assigned for faeces without microorganisms.
A VRE intestinal colonization (infection) model was adapted from Donskey et al. 25-30 g CF-1 female mice (Charles River) were used. Daily subcutaneous administration of clindamycin (1.4 mg/d) for five days was used to disrupt the intestinal microbiota to induce VRE infection. Three days after the end of clindamycin administration, gastric inoculation of 250 μl of an overnight culture of VRE in BHI broth was used to infect the mice. Approximately 10^8 viable VRE was administered to the mice. Since the beginning of the antibiotic therapy, all groups of LAB-treated mice received once daily […] of 10^10 CFU/ml of Lc. lactis subsp. lactis MM19, P. acidilactici MM33 or P. acidilactici MM33A previously washed twice in sterile PBS. The mice received the LAB until the eighth day after the infection. Bacitracin (Sigma) antibiotic was administrated orally once daily during three days following the mice infection with VRE as 600 units/d diluted in […] of sterile PBS. This treatment was then discontinued and replaced by PBS. Stool samples were collected before the antibiotic administration and 1, 3, 6, 8 and 12 days after the VRE infection. Fecal concentrations of total culturable VRE were analyzed using selective media. This experiment was repeated twice using a total of eight mice per experimental group.

[5] = Pediococcus acidilactici, MM33, MM33, ANO2 plate, read-out: MIC
[6] = Pediococcus acidilactici, MM33, MM33, GPN3F plate, read-out: MIC
[7] = Lactococcus lactis, ANO2 plate, read-out: MIC
[8] = Lactococcus lactis, GPN3F plate, read-out: MIC
[9] = Lacticaseibacillus rhamnosus, ATCC53103, L. rhamnosus GG, ANO2 plate, read-out: MIC
[10] = Lacticaseibacillus rhamnosus, ATCC53103, L. rhamnosus GG, GPN3F plate, read-out: MIC

Structure (SMILES)	MIC [1, 5]	MIC [1, 6]	MIC [2, 7]	MIC [2, 8]	MIC [3, 9]	MIC [3, 10]	further results
CC[C@H](C)[C@H](N)C1=N[C@H](C(=O)N[C@@H](CC(C)C)C(=O)N[C@H](CCC(=O)O)C(=O)N[C@H](C(=O)N[C@H]2CCCCNC(=O)[C@H](CC(N)=O)NC(=O)[C@@H](CC(=O)O)NC(=O)[C@H](Cc3cnc[nH]3)NC(=O)[C@@H](Cc3ccccc3)NC(=O)[C@H]([C@@H](C)CC)NC(=O)[C@@H](CCCN)NC2=O)[C@@H](C)CC)CS1 [Bacitracin] ({Ileψ(thiazoline)Cys}-L[dE]IK[dOrn]I[dF]H[dD]N; lactam 4-C)							Mice colonized with VRE (%) ([4]; 0 days after VRE infection): 0%; Mice colonized with VRE (%) ([4]; 1 day after VRE infection): 100%; Mice colonized with VRE (%) ([4]; 3 days after VRE infection): 0%; Mice colonized with VRE (%) ([4]; 6 days after VRE infection): 100%; Mice colonized with VRE (%) ([4]; 8 days after VRE infection): 100%; Mice colonized with VRE (%) ([4]; 12 days after VRE infection): 100%; VRE population (in words) ([4]; after the treatment was discontinued): reappeared; Level of VRE in feces (in words) ([4]; day 3, 600 units/d orally for three days after infection): undetectable level
O=C(O)c1cn(C2CC2)c2cc(N3CCNCC3)c(F)cc2c1=O [CIP, Ciprofloxacin]				2 µg/mL (≈ 6.04 µM)		1 µg/mL (≈ 3.02 µM)	
CCC[C@@H]1C[C@@H](C(=O)N[C@@H]([C@H]2O[C@H](SC)[C@H](O)[C@@H](O)[C@H]2O)[C@H](C)Cl)N(C)C1 [CLI, Clindamycin]	< 0.25 µg/mL	< 0.12 µg/mL	0.5 µg/mL (≈ 1.18 µM)	0.25 µg/mL (≈ 0.588 µM)	0.5 µg/mL (≈ 1.18 µM)	< 0.12 µg/mL	
CCCCCCCCCC(=O)N[C@@H](Cc1c[nH]c2ccccc12)C(=O)N[C@H](CC(N)=O)C(=O)N[C@@H](CC(=O)O)C(=O)N[C@@H]1C(=O)NCC(=O)N[C@@H](CCCN)C(=O)N[C@@H](CC(=O)O)C(=O)N[C@H](C)C(=O)N[C@@H](CC(=O)O)C(=O)NCC(=O)N[C@H](CO)C(=O)N[C@@H]([C@H](C)CC(=O)O)C(=O)N[C@@H](CC(=O)c2ccccc2N)C(=O)O[C@@H]1C [DAP, Daptomycin]		1 µg/mL (≈ 0.617 µM)		0.5 to 1 µg/mL (≈ 0.309 to 0.617 µM)		2 µg/mL (≈ 1.23 µM)	
CC[C@H]1OC(=O)[C@H](C)[C@@H](O[C@H]2C[C@@](C)(OC)[C@@H](O)[C@H](C)O2)[C@H](C)[C@@H](O[C@@H]2O[C@H](C)C[C@H](N(C)C)[C@H]2O)[C@](C)(O)C[C@@H](C)C(=O)[C@H](C)[C@@H](O)[C@]1(C)O [ERY, Erythromycin]		< 0.25 µg/mL		< 0.25 µg/mL		< 0.25 µg/mL	
COc1c(N2CCNC(C)C2)c(F)cc2c(=O)c(C(=O)O)cn(C3CC3)c12 (stereo not shown) [GAT, Gatofloxacin]							MIC ([1]; MM33, GPN3F plate): <1 µg/mL; MIC ([2]; GPN3F plate): <1 µg/mL; MIC ([3]; L. rhamnosus GG, GPN3F plate): <1 µg/mL
C[C@@H](O)[C@H]1C(=O)N2C(C(=O)O)=C(SCCN=CN)C[C@H]12 [IMI, Imipenem]	0.5 µg/mL (≈ 1.67 µM)		0.25 µg/mL (≈ 0.835 µM)		2 µg/mL (≈ 6.68 µM)		
C[C@H]1COc2c(N3CCN(C)CC3)c(F)cc3c(=O)c(C(=O)O)cn1c23 [LEVO, Levofloxacin]		> 8 µg/mL		0.5 µg/mL (≈ 1.38 µM)		2 to 4 µg/mL (≈ 5.53 to 11.1 µM)	
CC(=O)NC[C@H]1CN(c2ccc(N3CCOCC3)c(F)c2)C(=O)O1 [LZD, Linezolid]		4 to 8 µg/mL (≈ 11.9 to 23.7 µM)		2 µg/mL (≈ 5.93 µM)		1 to 2 µg/mL (≈ 2.96 to 5.93 µM)	
C[C@@H](O)[C@H]1C(=O)N2C(C(=O)O)=C(S[C@@H]3CN[C@H](C(=O)N(C)C)C3)[C@H](C)[C@H]12 [MERO, Meropenem]	2 µg/mL (≈ 5.22 µM)		< 0.5 µg/mL		8 µg/mL (≈ 20.9 µM)		

Now from value to compound, other results behind:

MIC [1, 5]	MIC [1, 6]	MIC [2, 7]	MIC [2, 8]	MIC [3, 9]	MIC [3, 10]	Structure (SMILES)	further results
4 µg/mL (≈ 11.4 µM)	2 µg/mL (≈ 5.72 µM)	< 0.5 µg/mL	0.12 to 0.25 µg/mL (≈ 0.343 to 0.715 µM)	1 µg/mL (≈ 2.86 µM)	1 µg/mL (≈ 2.86 µM)	CC1(C)S[C@@H]2[C@H](NC(=O)[C@H](N)c3ccccc3)C(=O)N2[C@H]1C(=O)O [AMP, Ampicillin]	
	16 µg/mL (≈ 28.9 µM)		< 8 µg/mL		32 to 64 µg/mL (≈ 57.7 to 115 µM)	CO/N=C(\C(=O)N[C@@H]1C(=O)N2C(C(=O)O)=C(CSc3nc(=O)c(=O)[nH]n3C)CS[C@H]12)c1csc(N)n1 [AXO, Ceftriaxone]	
16 µg/mL (≈ 49.5 µM)		4 µg/mL (≈ 12.4 µM)		8 µg/mL (≈ 24.8 µM)		O=C(N[C@H](CO)[C@H](O)c1ccc([N+](=O)[O-])cc1)C(Cl)Cl [CHL, Chloramphenicol]	
> 32 µg/mL		> 32 µg/mL		> 32 µg/mL		CO[C@@]1(NC(=O)Cc2cccs2)C(=O)N2C(C(=O)O)=C(COC(N)=O)CS[C@@H]21 [FOX, Cefoxitin]	
